Data reported in publication PMC10931682, “A Combination of Library Screening and Rational Mutagenesis Expands the Available Color Palette of the Smallest Fluorogen-Activating Protein Tag nanoFAST” (International Journal of Molecular Sciences, 2024).
Where a chain is given by its changes, count along the chain named.

Tests used:
nanoFAST [1] = target: T1, nanoFAST (Halorhodospira halophila, UniProt P16113, Q41K/E46Q/C69G/S72T/A84S/Y94W/T95A/F96I/D97P/Y98T/Q99S/M100R/T101G/M109L/S117R); assay: spectrofluorometric titration, plate reader; type: binding; details: PBS pH 7.4, 25 °C, 0.10 µM protein; non-covalent fluorogen
T1 construct: gene pyp; FAST (engineered PYP) lacking the first 27 residues, 98 aa; C-terminal tag of three glycines and six histidines; E. coli BL21(DE3), Ni purification
T1 sequence (P16113 28-125 Q41K/E46Q/C69G/S72T/A84S/Y94W/T95A/F96I/D97P/Y98T/Q99S/M100R/T101G/M109L/S117R): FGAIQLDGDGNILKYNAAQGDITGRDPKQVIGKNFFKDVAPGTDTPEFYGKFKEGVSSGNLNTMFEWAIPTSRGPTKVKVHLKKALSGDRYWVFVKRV
Text: spectrofluorometric titration, plate reader on nanoFAST

nanoFAST [2] = target: T2, nanoFAST (Halorhodospira halophila, UniProt P16113, C69G/Y94W/T95M/F96I/D97P/Y98T/Q99S/M100R/T101G); assay: fluorescence enhancement screen, plate reader; type: binding; details: PBS pH 7.4, 10 µM fluorogen, 1 µM protein
T2 construct: gene pyp; FAST (engineered PYP) lacking the first 27 residues, 98 aa; C-terminal tag of three glycines and six histidines; E. coli BL21(DE3), Ni purification
T2 sequence (P16113 28-125 C69G/Y94W/T95M/F96I/D97P/Y98T/Q99S/M100R/T101G): T1 sequence (P16113 28-125 Q41K/E46Q/C69G/S72T/A84S/Y94W/T95A/F96I/D97P/Y98T/Q99S/M100R/T101G/M109L/S117R) with K14Q, Q19E, T45S, S57A, A68M, L82M, R90S

Question: With `Cc1cc(/C=C2\SC(=S)NC2=O)c(C)cc1O` [HBR-2,5-DM] as the molecule, how does the Kd (nanoFAST [1]) read?
Answer: 0.5 ± 0.16 µM

Question: `COc1cc(/C=C2\SC(=S)NC2=O)c(OC)cc1O` [HBR-DOM2, 2,5-dimethoxy-4-hydroxy-arylidene-rhodanine] was tested. Which Kd (nanoFAST [1]) did it give?
Answer: 0.13 ± 0.01 µM

Question: What about the “fluorescence enhancement screen, plate reader” value (nanoFAST [2]) of the same molecule?
Answer: significant decrease in fluorescence enhancement with the previously proposed fluorogen of the nanoFAST protein

Question: For `COc1cc(/C=C2\SC(=S)NC2=O)cc(OC)c1O` [HBR-DOM], which Kd (nanoFAST [1]) is on record?
Answer: 1.69 ± 0.32 µM
